{"source": "BindingDB's records for patent US20250154134", "about": "(Wigen Biomedicine Technology (Shanghai), 2025)"}
{"target": "Focal adhesion kinase 1 (Homo sapiens, UniProt Q05397)", "sequence (Q05397 whole entry)": "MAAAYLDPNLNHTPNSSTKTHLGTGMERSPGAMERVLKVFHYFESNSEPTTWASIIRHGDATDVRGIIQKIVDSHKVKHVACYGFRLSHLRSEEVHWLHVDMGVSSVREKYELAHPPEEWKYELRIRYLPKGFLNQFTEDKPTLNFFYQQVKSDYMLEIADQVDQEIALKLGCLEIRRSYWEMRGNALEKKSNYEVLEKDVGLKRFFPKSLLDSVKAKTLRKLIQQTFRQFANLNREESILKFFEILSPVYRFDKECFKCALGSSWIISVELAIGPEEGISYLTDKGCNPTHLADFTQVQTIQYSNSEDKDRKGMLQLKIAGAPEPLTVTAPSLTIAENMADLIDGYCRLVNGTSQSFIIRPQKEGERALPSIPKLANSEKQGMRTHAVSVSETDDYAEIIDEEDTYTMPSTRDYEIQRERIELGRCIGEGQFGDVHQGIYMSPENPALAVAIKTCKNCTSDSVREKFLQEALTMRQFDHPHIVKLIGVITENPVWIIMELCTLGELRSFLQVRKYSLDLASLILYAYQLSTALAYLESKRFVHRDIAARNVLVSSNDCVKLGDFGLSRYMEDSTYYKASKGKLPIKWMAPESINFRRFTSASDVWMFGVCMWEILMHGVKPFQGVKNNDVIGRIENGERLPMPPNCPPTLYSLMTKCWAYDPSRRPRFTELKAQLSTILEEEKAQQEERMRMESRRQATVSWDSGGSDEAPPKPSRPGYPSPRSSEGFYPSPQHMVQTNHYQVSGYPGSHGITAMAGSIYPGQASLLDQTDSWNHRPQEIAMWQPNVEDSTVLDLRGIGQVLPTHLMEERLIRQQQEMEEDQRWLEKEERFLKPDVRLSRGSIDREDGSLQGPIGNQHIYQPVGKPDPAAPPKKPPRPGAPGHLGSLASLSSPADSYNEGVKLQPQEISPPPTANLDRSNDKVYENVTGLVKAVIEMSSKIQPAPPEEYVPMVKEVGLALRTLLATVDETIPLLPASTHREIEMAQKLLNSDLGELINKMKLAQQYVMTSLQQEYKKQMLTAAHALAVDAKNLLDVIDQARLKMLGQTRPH", "assay": "Inhibitory Activity Assay", "method": "A compound serially diluted with DMSO was mixed with a FAK recombinant protein. After the mixture was left to stand at room temperature for 10 min, a biotin-labeled TK substrate (TK) and ATP were added. […] The inhibition percentage and IC50 of the compound were calculated compared to the DMSO control group.", "units": {"IC50": "nM"}}
{"smiles": "COc1cc(C(=O)NC2CCN(C)CC2)ccc1Nc1ncc(C(F)(F)F)c(Oc2cccc3c2C(=O)N(C)C32CC2)n1", "note": "[US20250154134, Compound 3]", "IC50": "< 20"}
{"smiles": "COc1cc(C(=O)NC2CCNCC2)ccc1Nc1ncc(C(F)(F)F)c(Oc2cccc3c2C(=O)N(C)C32CC2)n1", "note": "[US20250154134, Compound 35]", "IC50": "< 20"}
{"smiles": "COc1cc(C(=O)NC2(C)CCN(C)CC2)ccc1Nc1ncc(Cl)c(Oc2cccc3c2C(=O)N(C)C32CC2)n1", "note": "[US20250154134, Compound 118]", "IC50": "< 20"}
{"smiles": "COc1cc(C(=O)NC2CCN(C)CC2)c(F)cc1Nc1ncc(Cl)c(Oc2cccc3c2C(=O)N(C)C32CCCC2)n1", "note": "[US20250154134, Compound 209]", "IC50": "< 20"}
